Reference: BindingDB's records for patent US20260022118 (University of Texas System, 2026)

Target: GTPase NRas [G12D,C118S] (Homo sapiens, UniProt P01111, C118S/G12D)
Experiment: NRas G12D Surface Plasmon Resonance (SPR) Binding Assay
Method: The assay was run at 25° C. with a data collection rate of 10 Hz. All samples were flowed over both a reference surface and an active surface. Samples were injected for 30 s, with a dissociation time length of 120 s, at a flow rate of 100 μL/min and followed by an extra wash with 50% DMSO and a carry-over control injected at 40 μL/min for 30 s. Ten startup cycles were performed at the beginning of the assay. Solvent correction samples were injected once in the middle of the assay, and once at the end. A control sample of 10 μM control compound was injected between two negative control injections (1.0× running buffer containing 3% DMSO) every thirty cycles, to periodically assess NRAS surface stability. Assay was allowed to run for approximately 20-24 hours due to loss of activity of the protein surface over time. Data was analyzed using the Biacore™ S200 Evaluation Software, and all data was fit using a 1:1 kinetic binding model or steady-state fitting, as appropriate.

Sequence of GTPase NRas [G12D,C118S] (P01111 whole entry G12D/C118S, looked up): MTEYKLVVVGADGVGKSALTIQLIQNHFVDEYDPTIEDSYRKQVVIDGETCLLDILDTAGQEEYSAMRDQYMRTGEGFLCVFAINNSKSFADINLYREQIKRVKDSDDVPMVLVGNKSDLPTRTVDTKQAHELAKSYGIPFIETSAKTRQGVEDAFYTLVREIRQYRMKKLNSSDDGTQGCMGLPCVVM

- Kd: 119 nM
Structure (SMILES): C#Cc1c(F)ccc2cc(O)cc(-c3nc(C(C)=O)c4c([C@H]5[C@@H]6CNC[C@@H]65)nn(C5CC5)c4c3F)c12 [US20260022118, Example 84]
